Laboratory results: ChEMBL document CHEMBL3352388, “Active compounds from a diverse library of triazolothiadiazole and triazolothiadiazine scaffolds: synthesis, crystal structure determination, cytotoxicity, cholinesterase inhibitory activity, and binding mode analysis” (Bioorg Med Chem, 2014)

Columns and labels:
[1] = biological target: Acetylcholinesterase (Electrophorus electricus) (UniProt O42275); assay: Inhibition of electric eel AChE at 100 uM by Ellman's method
Cholinesterase [2] = biological target: T1, Cholinesterase (Homo sapiens, UniProt P06276); assay: Inhibition of human BChE by Ellman's method
Vero = assay: Cytotoxicity against African green monkey Vero cells by sulforhodamine B assay; type: cell-based; set-up: concentration or dose not given beside the values; details: chlorocebus sabaeus
NCI-H157 = assay: Cytotoxicity against human NCI-H157 cells by sulforhodamine B assay; type: functional, cell-based
Acetylcholinesterase = Acetylcholinesterase (Electrophorus electricus, UniProt O42275); assay: Inhibition of electric eel AChE by Ellman's method
Cholinesterase [3] = biological target: T1, Cholinesterase; assay: Ratio of neostigmine IC50 to compound IC50 for human BChE

T1 sequence (P06276 whole entry): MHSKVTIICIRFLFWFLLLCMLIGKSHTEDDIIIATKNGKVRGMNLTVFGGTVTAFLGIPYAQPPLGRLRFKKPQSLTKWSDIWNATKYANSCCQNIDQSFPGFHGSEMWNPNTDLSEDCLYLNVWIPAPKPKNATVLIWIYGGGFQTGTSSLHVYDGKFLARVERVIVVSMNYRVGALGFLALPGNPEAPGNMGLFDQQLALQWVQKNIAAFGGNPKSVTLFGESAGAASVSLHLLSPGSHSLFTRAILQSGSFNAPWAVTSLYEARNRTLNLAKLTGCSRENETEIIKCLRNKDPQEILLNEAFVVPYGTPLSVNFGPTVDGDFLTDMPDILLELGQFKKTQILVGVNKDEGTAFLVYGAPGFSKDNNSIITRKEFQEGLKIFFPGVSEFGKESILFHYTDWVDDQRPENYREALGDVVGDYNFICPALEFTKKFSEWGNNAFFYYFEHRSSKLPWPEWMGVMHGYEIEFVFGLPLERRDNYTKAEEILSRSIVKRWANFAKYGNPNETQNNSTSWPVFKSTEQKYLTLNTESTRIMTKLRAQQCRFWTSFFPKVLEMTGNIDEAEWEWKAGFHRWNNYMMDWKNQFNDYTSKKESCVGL
Chain of Acetylcholinesterase (Electrophorus electricus) (O42275 24-633 limits assumed): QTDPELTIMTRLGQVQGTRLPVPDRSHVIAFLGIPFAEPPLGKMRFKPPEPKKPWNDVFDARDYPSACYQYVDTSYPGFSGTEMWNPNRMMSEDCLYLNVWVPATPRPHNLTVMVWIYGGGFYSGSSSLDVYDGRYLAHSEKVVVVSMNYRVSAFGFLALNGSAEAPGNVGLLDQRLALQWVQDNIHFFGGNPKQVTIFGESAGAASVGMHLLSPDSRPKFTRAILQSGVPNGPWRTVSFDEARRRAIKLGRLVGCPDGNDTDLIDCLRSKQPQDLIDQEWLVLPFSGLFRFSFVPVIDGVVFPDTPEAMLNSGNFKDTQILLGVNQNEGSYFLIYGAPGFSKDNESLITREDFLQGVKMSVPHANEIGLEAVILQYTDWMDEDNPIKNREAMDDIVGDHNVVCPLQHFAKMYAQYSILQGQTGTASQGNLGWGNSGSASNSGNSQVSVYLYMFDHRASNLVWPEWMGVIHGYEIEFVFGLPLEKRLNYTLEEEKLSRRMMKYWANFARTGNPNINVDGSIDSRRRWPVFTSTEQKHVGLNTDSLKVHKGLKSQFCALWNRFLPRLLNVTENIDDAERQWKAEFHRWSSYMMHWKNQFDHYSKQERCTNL
Chain of Acetylcholinesterase (O42275 whole entry): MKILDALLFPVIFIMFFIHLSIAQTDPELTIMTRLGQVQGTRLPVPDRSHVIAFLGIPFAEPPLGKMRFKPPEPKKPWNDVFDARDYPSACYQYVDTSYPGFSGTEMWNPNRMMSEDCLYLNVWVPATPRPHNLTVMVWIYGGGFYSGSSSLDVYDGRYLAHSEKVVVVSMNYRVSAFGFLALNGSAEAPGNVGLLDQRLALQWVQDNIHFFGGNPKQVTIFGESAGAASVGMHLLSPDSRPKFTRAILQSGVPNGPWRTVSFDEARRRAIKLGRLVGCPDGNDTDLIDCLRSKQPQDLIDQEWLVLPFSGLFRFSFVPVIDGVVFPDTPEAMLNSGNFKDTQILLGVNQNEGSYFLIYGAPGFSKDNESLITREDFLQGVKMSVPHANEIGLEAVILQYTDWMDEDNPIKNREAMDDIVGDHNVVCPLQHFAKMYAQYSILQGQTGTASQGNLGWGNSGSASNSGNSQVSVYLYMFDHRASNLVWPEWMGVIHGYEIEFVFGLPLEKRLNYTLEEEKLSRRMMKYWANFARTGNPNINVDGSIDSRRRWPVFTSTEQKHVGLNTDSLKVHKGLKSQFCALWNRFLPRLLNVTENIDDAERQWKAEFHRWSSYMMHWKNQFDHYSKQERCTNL

Row | Structure (SMILES) | inhibition [1] [%] | IC50 (Cholinesterase [2]) [µM] | Activity (Vero) [%] | IC50 (NCI-H157) [µM] | IC50 (Acetylcholinesterase) [µM] | Ratio IC50 (Cholinesterase [3])
1 | Fc1cc(Cl)ccc1-c1nn2c(-c3cccnc3)nnc2s1 | 36.2 | 37.4 | 26.7 | 1.87 | – | –
2 | Fc1ccc(Cc2nn3c(-c4cccnc4)nnc3s2)cc1 | 32.3 | 79.9 | 21.3 | 1.65 | – | –
3 | Fc1ccc(C2=Nn3c(nnc3-c3cccnc3)SC2)cc1 | 40.8 | 4.92 | 18.4 | 1.85 | – | –
4 | Oc1ccccc1OCc1nn2c(-c3cccnc3)nnc2s1 | – | 3.02 | 22.7 | 3.67 | 35.5 | –
5 | Fc1ccc(-c2nn3c(-c4cccnc4)nnc3s2)cc1Cl | 48.4 | 10.3 | 23.6 | 1.08 | – | –
6 | Cc1ccccc1OCc1nn2c(-c3cccnc3)nnc2s1 | – | – | 20.9 | 3.29 | – | –
7 | c1cncc(-c2nnc3sc(-c4ccc[nH]4)nn23)c1 | – | 13.7 | 19.2 | 5.14 | 13.7 | –
8 | O=[N+]([O-])c1ccc(C2=Nn3c(nnc3-c3cccnc3)SC2)cc1 | – | 1.09 | 10.7 | 1.42 | 18.3 | 15
9 | COc1ccc(C2=Nn3c(nnc3-c3cccnc3)SC2)cc1 | 15.2 | 0.781 | 27.8 | 1.67 | – | 23
10 | c1cncc(-c2nnc3sc(-c4ccoc4)nn23)c1 | – | – | 28.4 | 3.41 | – | –
11 | CC[C@]1(O)C[C@H]2CN(CCc3c([nH]c4ccccc34)[C@@](C(=O)OC)(c3cc4c(cc3OC)N(C=O)[C@H]3[C@@](O)(C(=O)OC)[C@H](OC(C)=O)[C@]5(CC)C=CCN6CC[C@]43[C@@H]65)C2)C1 [VINCRISTINE] | – | – | 16.81 | 1.03 | – | –
12 | Cc1ccc(C2=Nn3c(nnc3-c3cccnc3)SC2)cc1 | 28.7 | 25.4 | 27.3 | 3.87 | – | –
13 | CN(C)C(=O)Oc1cccc([N+](C)(C)C)c1 [NEOSTIGMINE] | – | 16.3 | – | – | – | –
14 | Cc1occc1-c1nn2c(-c3cccnc3)nnc2s1 | – | 58.6 | 24.3 | 2.93 | 37.7 | –
15 | Clc1ccc(C2=Nn3c(nnc3-c3cccnc3)SC2)cc1Cl | – | 64.8 | 22.2 | 0.96 | 38.5 | –
16 | Cc1ccc(OCc2nn3c(-c4cccnc4)nnc3s2)cc1 | – | 4.76 | 23.8 | 2.98 | 11.3 | –
17 | Oc1ccc(OCc2nn3c(-c4cccnc4)nnc3s2)cc1 | – | 0.585 | 20.4 | 3.01 | 3.09 | –
18 | Clc1ccc(C2=Nn3c(nnc3-c3cccnc3)SC2)cc1 | – | 9.82 | 21.1 | 3.94 | 15.1 | –
19 | Fc1ccc(OCc2nn3c(-c4cccnc4)nnc3s2)cc1 | – | – | 17.4 | 1.94 | – | –
20 | COc1ccc(OCc2nn3c(-c4cccnc4)nnc3s2)cc1 | 39.5 | 55.8 | 24.1 | 1.95 | – | –
21 | c1ccc(-c2ccc(C3=Nn4c(nnc4-c4cccnc4)SC3)cc2)cc1 | – | 18.9 | 26.1 | 4.32 | 39.7 | –
22 | c1cncc(-c2nnc3sc(-c4ccco4)nn23)c1 | – | 6.03 | 23.9 | 3.16 | 21.2 | –
23 | CCOc1ccc(Cc2nn3c(-c4cccnc4)nnc3s2)cc1 | 38.4 | 70.7 | 22.5 | 2.92 | – | –
24 | c1cncc(-c2nnc3n2N=C(c2cccc4ccccc24)CS3)c1 | 17.2 | 15.9 | 23.1 | 5.37 | – | –
